Data taken from patent US9175030B2, “Derivatives of avicin D and methods of making and using thereof” (priority 2012, dated 2015).

Legend:
[1] = test system: WSU-DLCL2; assay: MTT growth inhibition, WSU-DLCL2; type: cell-based, human; details: WSU-DLCL2 cells, 72 hrs
Procedure: (§1) The growth inhibitory effects of avicin D and oxetane derivative were measured using the MTT [3-(4,5-dimethylthiazol-2-yl)-2,5-diphenyl tetrazolium bromide] reduction assay as described in Haridas et al. (2001). Cells were cultured with varying concentrations of avicin D or oxetane in 96-well plates for 72 hrs at 37° C. At the end of 72 hrs, cells were stained with MTT for 2 hrs and then incubated with lysis buffer (20% SDS in 50% N,N-dimethylformamide) for another 6 hrs. Optical density at 570 nm was used as a measure of cell viability.
(§2) The cell lines 769P, A498, CAKI-1, and CAKI-2 are derived from primary human renal-cell cancers (RCC). A549 is a human lung adenocarcinoma epithelial cell line. B16F10 is a mouse melanoma cell line. BT474, BT 474 M1, BT549, MCF7, […], and ZR751 are breast cancer cell lines. CCRF-CEM, Jurkat, and MOLT4 are leukemia cell lines. HELA is cell line derived from cervical caner. HepG2 is a human hepatocellular liver carcinoma cell line. JeKo-1 is a mantle cell lymphoma (MCL) cell line. LnCAP is a cell line was established from a metastatic lesion of human prostatic adenocarcinoma. MM.1 and RPMI-8226 are human multiple myeloma cell lines. OVCAR3 and SKOV3 are ovarian cancer cell lines. Panc-1 is a pancreatic cancer cell line. PC3 is a prostate cancer cell line. Raji is a Burkitt's lymphoma cell line. RL is a non-Hodgkin's lymphoma cell line. […]

[2] = test system: MCF7; assay: MTT growth inhibition, MCF7; type: cell-based; details: MCF7 cells, 72 hrs
Procedure: as §1, §2

[3] = test system: OVCAR3; assay: MTT growth inhibition, OVCAR3; type: cell-based; details: OVCAR3 cells, 72 hrs
Procedure: as §1, §2

[4] = test system: BT474 M1; assay: MTT growth inhibition, BT474 M1; type: cell-based; details: BT474 M1 cells, 72 hrs
Procedure: as §1, §2

[5] = test system: A549; assay: MTT growth inhibition, A549; type: cell-based, human; details: A549 cells, 72 hrs
Procedure: as §1, §2

[6] = test system: Raji; assay: MTT growth inhibition, Raji; type: cell-based; details: Raji cells, 72 hrs
Procedure: as §1, §2

[7] = test system: human preadipocytes; details: cited from earlier work
[8] = test system: BT549; assay: MTT growth inhibition, BT549; type: cell-based; details: BT549 cells, 72 hrs
Procedure: as §1, §2

[9] = test system: HepG2; assay: MTT growth inhibition, HepG2; type: cell-based, human; details: HepG2 cells, 72 hrs
Procedure: as §1, §2

[10] = test system: HEK293; assay: MTT growth inhibition, HEK293; type: cell-based, human; details: HEK293 cells, 72 hrs
Procedure: as §1, §2

[11] = test system: adiponectin; details: adipocytes; cited from earlier work
[12] = test system: B16F10; assay: MTT growth inhibition, B16F10; type: cell-based, mouse; details: B16F10 cells, 72 hrs
Procedure: as §1, §2

[13] = test system: CCRF-CEM; assay: MTT growth inhibition, CCRF-CEM; type: cell-based; details: CCRF-CEM cells, 72 hrs
Procedure: as §1, §2

[14] = test system: chemotaxis; assay: Inhibition of chemotaxis; type: cell-based; details: preliminary data
[15] = test system: 3T3-L1 cells; details: cited from earlier work
[16] = test system: GM0131; assay: MTT growth inhibition, GM0131; type: cell-based; details: GM0131 wild type human fibroblast cells, 72 hrs
Procedure: as §1, §2

[17] = test system: Panc-1; assay: MTT growth inhibition, Panc-1; type: cell-based; details: Panc-1 cells, 72 hrs
Procedure: as §1, §2

[18] = test system: ZR751; assay: MTT growth inhibition, ZR751; type: cell-based; details: ZR751 cells, 72 hrs
Procedure: as §1, §2

[19] = test system: 769P; assay: MTT growth inhibition, 769P; type: cell-based, human; details: 769P cells, 72 hrs
Procedure: as §1, §2

[20] = test system: MM1; assay: MTT growth inhibition, MM1; type: cell-based, human; details: MM1 cells, 72 hrs
Procedure: as §1, §2

[21] = test system: Jurkat (human T-cell leukemia) cells; assay: Reduction in cell viability, Jurkat cells (Table 6); type: cell-based; details: 50% reduction in cell viability
Text: The IC50 values indicate the concentrations of avicin D/compound 8 required to induce a 50% reduction in call viability. These studies were done in Jurkat (human T-cell leukemia) cells and have been described previously in Haridas et al., 2001, which is incorporated herein by reference.

[22] = test system: CAKI-2; assay: MTT growth inhibition, CAKI-2; type: cell-based, human; details: CAKI-2 cells, 72 hrs
Procedure: as §1, §2

[23] = test system: RL; assay: MTT growth inhibition, RL; type: cell-based; details: RL cells, 72 hrs
Procedure: as §1, §2

IC50 [2]: 15200 nM
IC50 [3]: 1300 nM
IC50 [4]: 1100 nM
IC50 [5]: 6900 nM
IC50 [6]: 1270 nM
IC50 [8]: 4800 nM
IC50 [9]: 440 nM
IC50 [12]: 660 nM
IC50 [13]: 5500 nM
IC50 [17]: 520 nM
IC50 [20]: 100 nM
IC50 [21]: 180 nM
Compound: C=C[C@](C)(O)CC/C=C(\CO)C(=O)O[C@H]1[C@H](O)[C@@H](O)[C@H](O[C@@](C)(C=C)CC/C=C(\CO)C(=O)O[C@H]2C[C@]3(C(=O)O[C@@H]4O[C@H](CO)[C@@H](O)[C@H](O)[C@H]4O[C@@H]4O[C@@H](C)[C@H](O[C@@H]5O[C@@H](CO)[C@H](O)[C@H]5O)[C@@H](O[C@@H]5O[C@H](CO)[C@@H](O)[C@H](O)[C@H]5O)[C@H]4O)[C@H](O)C[C@]4(C)C(=CC[C@@H]5[C@@]6(C)CC[C@H](O[C@@H]7O[C@H](CO[C@@H]8O[C@H](C)[C@H](O)[C@H](O)[C@H]8O[C@@H]8OC[C@@H](O)[C@H](O)[C@H]8O)[C@@H](O)[C@H](O)[C@H]7NC(C)=O)C(C)(C)[C@@H]6CC[C@]54C)[C@@H]3CC2(C)C)O[C@@H]1C [Avicin D]
IC50 [1]: 520 nM
differentiation of preadipocytes to mature adipocytes [7]: inhibited the differentiation of human preadipocytes to mature adipocytes
intracellular triglyceride levels [7]: reduced intracellular triglyceride levels
IC50 [10]: 6500 nM
expression and secretion of adiponectin [11]: increased the expression and secretion of adiponectin
inhibition of chemotaxis [14]: effective at inhibiting chemotaxis at picomolar and nanomolar concentrations
adipogenesis [15]: inhibit adipogenesis
intracellular triglyceride level [15]: reduce intracellular triglyceride level in a dose-dependent manner
IC50 [16]: 30100 nM
IC50 [18]: 670 nM
IC50 [19]: 360 nM
IC50 [22]: 2060 nM
IC50 [23]: 310 nM
